Measured values as given in US8435986B2, “Bicyclic traizole derivatives for treating of tumors” (Merck Patent Gesellschaft mit beschrankter Haftung, priority 2008, dated 2013).
Where a name gives a salt, the structure may show the parent alone.

Key:
Met kinase [1] = target: T1, Met kinase (Homo sapiens, UniProt P08581); assay: Met kinase inhibition, cellular assay; assay type: cell-based; conditions: read-out: Cellular assay IC50 (cell)
Target sequence in this assay (P08581 25-1390): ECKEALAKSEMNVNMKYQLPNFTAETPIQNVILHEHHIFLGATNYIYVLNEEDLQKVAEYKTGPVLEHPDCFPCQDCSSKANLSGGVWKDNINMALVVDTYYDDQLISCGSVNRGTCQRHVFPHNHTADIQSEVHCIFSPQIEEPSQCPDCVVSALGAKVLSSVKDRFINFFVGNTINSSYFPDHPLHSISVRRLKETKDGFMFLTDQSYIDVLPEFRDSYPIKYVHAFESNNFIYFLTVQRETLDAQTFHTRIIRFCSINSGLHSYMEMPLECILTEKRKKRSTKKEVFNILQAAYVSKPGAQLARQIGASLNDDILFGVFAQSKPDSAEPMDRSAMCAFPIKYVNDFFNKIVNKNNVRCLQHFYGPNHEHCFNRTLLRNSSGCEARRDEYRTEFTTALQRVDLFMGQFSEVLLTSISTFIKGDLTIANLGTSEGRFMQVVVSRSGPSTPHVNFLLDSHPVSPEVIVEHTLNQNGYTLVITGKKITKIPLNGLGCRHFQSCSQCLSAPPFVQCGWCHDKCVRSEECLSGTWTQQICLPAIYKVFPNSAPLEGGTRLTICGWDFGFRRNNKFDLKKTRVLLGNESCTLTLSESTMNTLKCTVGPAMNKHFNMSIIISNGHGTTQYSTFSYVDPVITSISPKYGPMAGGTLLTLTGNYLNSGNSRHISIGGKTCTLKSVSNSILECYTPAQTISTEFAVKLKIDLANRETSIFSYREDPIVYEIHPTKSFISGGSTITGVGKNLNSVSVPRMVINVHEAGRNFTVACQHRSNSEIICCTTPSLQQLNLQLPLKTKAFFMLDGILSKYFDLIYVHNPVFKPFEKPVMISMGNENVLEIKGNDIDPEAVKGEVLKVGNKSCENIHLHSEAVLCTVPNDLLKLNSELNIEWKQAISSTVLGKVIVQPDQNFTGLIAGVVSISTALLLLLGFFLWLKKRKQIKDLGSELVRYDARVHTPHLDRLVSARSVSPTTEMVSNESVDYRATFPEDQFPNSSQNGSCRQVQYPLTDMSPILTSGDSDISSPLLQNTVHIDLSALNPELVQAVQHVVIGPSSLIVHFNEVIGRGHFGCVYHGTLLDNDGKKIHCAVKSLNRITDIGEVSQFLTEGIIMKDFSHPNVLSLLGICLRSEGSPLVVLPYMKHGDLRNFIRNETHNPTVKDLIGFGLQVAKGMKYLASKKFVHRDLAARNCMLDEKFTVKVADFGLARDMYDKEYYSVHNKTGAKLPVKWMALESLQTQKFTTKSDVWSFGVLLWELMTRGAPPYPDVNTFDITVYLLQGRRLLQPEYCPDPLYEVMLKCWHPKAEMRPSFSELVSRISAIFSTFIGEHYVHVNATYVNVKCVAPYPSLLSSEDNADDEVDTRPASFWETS

Met kinase [2] = target: T1, Met kinase; assay: Met kinase inhibition, biochemical assay (flashplate method); parameters: 6His (N); purchased Upstate 14-526; host or cells: Sf21 insect cells (S. frugiperda), baculovirus; conditions: read-out: Biochemical assay IC50 (enzyme)
Description: Measurement of Met Kinase Activity
According to the manufacturer's data (Met, active, Upstate, catalogue No. 14-526), Met kinase is expressed for the purposes of protein production in insect cells (Sf21; S. frugiperda) and subsequent affinity-chromatographic purification as “N-terminal 6His-tagged” recombinant human protein in a baculovirus expression vector.
Flashplate Method (Met Kinase)
The test plates used are 96-well Flashplate® microtitre plates from Perkin Elmer (Cat. No. SMP200). The components of the kinase reaction described below are pipetted into the assay plate. The Met kinase and the substrate poly Ala-Glu-Lys-Tyr, (pAGLT, 6:2:5:1), are incubated for 3 hrs at room temperature with radioactively labelled ^33P-ATP in the presence and absence of test substances in a total volume of 100 μl. The reaction is terminated using 150 μl of a 60 mM EDTA solution. After incubation for a further 30 min at room temperature, the supernatants are filtered off with suction, and the wells are washed three times with 200 μl of 0.9% NaCl solution each time. The measurement of the bound radioactivity is carried out by means of a scintillation measuring instrument (Topcount NXT, Perkin-Elmer).
The full value used is the inhibitor-free kinase reaction. This should be approximately in the range 6000-9000 cpm. The pharmacological zero value used is staurosporin in a final concentration of 0.1 mM. The inhibitory values (IC50) are determined using the RS1_MTS program.
Kinase reaction conditions per well:
10 μl of substance to be tested in assay buffer with 10% of DMSO
10 μl of ATP (final concentration 1 μM cold, 0.35 μCi of ^33P-ATP)
50 μl of Met kinase/substrate mixture in assay buffer; • (10 ng of enzyme/well, 50 ng of pAGLT/well) • Solutions used: • Assay buffer: • 50 mM HEPES • 3 mM magnesium chloride • 3 μM sodium orthovanadate • 3 mM manganese(II) chloride • 1 mM dithiothreitol (DTT) • pH=7.5 (to be set using sodium hydroxide) • Stop solution: • 60 mM Titriplex III (EDTA) • ^33P-ATP: Perkin-Elmer; • Met kinase: Upstate, Cat. No. 14-526, Stock 1 μg/10 μl; spec. activity 954 U/mg; • Poly-Ala-Glu-Lys-Tyr, 6:2:5:1: Sigma Cat. No. P1152 In-Vivo Tests
Target sequence in this assay (P08581 974-1390 limits assumed): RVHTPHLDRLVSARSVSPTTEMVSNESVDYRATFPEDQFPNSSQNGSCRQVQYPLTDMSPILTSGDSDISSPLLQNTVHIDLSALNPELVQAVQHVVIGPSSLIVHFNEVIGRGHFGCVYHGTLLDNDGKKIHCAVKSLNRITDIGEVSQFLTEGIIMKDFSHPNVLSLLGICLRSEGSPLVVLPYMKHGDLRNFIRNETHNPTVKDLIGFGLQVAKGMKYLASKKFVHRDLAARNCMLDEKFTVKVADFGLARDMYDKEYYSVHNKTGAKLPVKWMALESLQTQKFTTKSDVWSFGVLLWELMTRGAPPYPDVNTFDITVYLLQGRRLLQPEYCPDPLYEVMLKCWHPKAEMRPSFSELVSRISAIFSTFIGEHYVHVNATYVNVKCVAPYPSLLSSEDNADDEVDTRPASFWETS

## Brc1cnc2nnn(Cc3cccc(-c4ncc(OCCN5CCOCC5)cn4)c3)c2n1 [Compound A1, 6-bromo-1-{3-[5-(2-morpholin-4-ylethoxy)pyrimidin-2-yl]benzyl}-1H-1,2,3-triazolo[4,5-b]-pyrazine]
Met kinase [1]
  IC50: 1 to 100 nM

## Cn1cc(-c2cnc3nnn(Cc4cccc(-c5ncc(OCCN6CCOCC6)cn5)c4)c3n2)cn1 [Compound A2, 6-(1-methyl-1H-pyrazol-4-yl)-1-{3-[5-(2-morpholin-4-ylethoxy)-pyrimidin-2-yl]benzyl}-1H-1,2,3-triazolo[4,5-b]pyrazine]
Met kinase [1]
  IC50: 1 to 100 nM
Met kinase [2]
  IC50: 1 to 100 nM

## c1cc(Cn2nnc3ccccc32)cc(-c2ncc(OCCN3CCOCC3)cn2)c1 [Compound A3, 1-{3-[5-(2-morpholin-4-ylethoxy)pyrimidin-2-yl]benzyl}-1H-benzotriazole]
Met kinase [1]
  IC50: 100 to 10000 nM
Met kinase [2]
  IC50: 1 to 100 nM

## Cn1cc(-c2cnc3nnn(Cc4cccc(-c5ncc(OC6CCNCC6)cn5)c4)c3n2)cn1 [Compound A6]
Met kinase [1]
  IC50: 1 to 100 nM
Met kinase [2]
  IC50: 1 to 100 nM

## Cn1cc(-c2cnc3nnn(Cc4cccc(-c5ncc(OCC6CCNCC6)cn5)c4)c3n2)cn1 [Compound A9]
Met kinase [1]
  IC50: 1 to 100 nM
Met kinase [2]
  IC50: 1 to 100 nM

## Cn1cc(-c2cnc3nnn(Cc4cccc(-c5ncc(-c6cnn(CCN7CCCC7)c6)cn5)c4)c3n2)cn1 [Compound A24, 6-(1-methyl-1H-pyrazol-4-yl)-1-(3-{5-[1-(2-pyrrolidin-1-yl-ethyl)-1H-pyrazol-4-yl]pyrimidin-2-yl}benzyl)-1H-1,2,3-triazolo[4,5-b]-pyrazine hydrochloride]
Met kinase [1]
  IC50: 1 to 100 nM
Met kinase [2]
  IC50: 1 to 100 nM

## N#Cc1cccc(-c2cnc3nnn(Cc4cccc(-c5ncc(OC6CCNCC6)cn5)c4)c3n2)c1 [Compound A27]
Met kinase [1]
  IC50: 1 to 100 nM
Met kinase [2]
  IC50: 1 to 100 nM

## N#Cc1cccc(-c2cnc3nnn(Cc4cccc(-c5ncc(OCC6CCNCC6)cn5)c4)c3n2)c1 [Compound A30]
Met kinase [1]
  IC50: 1 to 100 nM
Met kinase [2]
  IC50: 1 to 100 nM

## Fc1ccc2nnn(Cc3cccc(-c4ncc(OCCN5CCOCC5)cn4)c3)c2c1F [Compound A46]
Met kinase [1]
  IC50: 1 to 100 nM
Met kinase [2]
  IC50: 1 to 100 nM

## Clc1ccc2nnn(Cc3cccc(-c4ncc(OCCN5CCOCC5)cn4)c3)c2n1 [Compound A48, 5-chloro-3-{3-[5-(2-morpholin-4-ylethoxy)pyrimidin-2-yl]-benzyl}-3H-1,2,3-triazolo[4,5-b]pyridine]
Met kinase [1]
  IC50: 100 to 10000 nM
Met kinase [2]
  IC50: 1 to 100 nM

## Brc1cnc(-c2cccc(Cn3nnc4ncc(Br)nc43)c2)nc1 [Compound B1, 6-bromo-1-[3-(5-bromopyrimidin-2-yl)benzyl]-1H-1,2,3-triazolo[4,5-b]pyrazine]
Met kinase [1]
  IC50: 100 to 10000 nM
Met kinase [2]
  IC50: 1 to 100 nM

## Cn1cc(Oc2cnc3nnn(Cc4cccc(-c5ncc(Br)cn5)c4)c3n2)cn1 [Compound B5, 1-[3-(5-bromopyrimidin-2-yl)benzyl]-6-(1-methyl-1H-pyrazol-4-yloxy)-1H-1,2,3-triazolo[4,5-b]pyrazine]
Met kinase [1]
  IC50: 1 to 100 nM
Met kinase [2]
  IC50: 1 to 100 nM

## N#Cc1cccc(Oc2cnc3nnn(Cc4cccc(-c5ncc(Br)cn5)c4)c3n2)c1 [Compound B6, 3-{3-[3-(5-bromopyrimidin-2-yl)benzyl]-3H-1,2,3-triazolo[4,5-b]pyrazin-5-yloxy}benzonitrile]
Met kinase [1]
  IC50: 1 to 100 nM
Met kinase [2]
  IC50: 1 to 100 nM

## Fc1cc(F)cc(Oc2cnc3nnn(Cc4cccc(-c5ncc(Br)cn5)c4)c3n2)c1 [Compound B7, 1-[3-(5-bromopyrimidin-2-yl)benzyl]-6-(3,5-difluorophenoxy)-1H-1,2,3-triazolo[4,5-b]pyrazine]
Met kinase [1]
  IC50: 1 to 100 nM
Met kinase [2]
  IC50: 1 to 100 nM

## Oc1cnc(-c2cccc(Cn3nnc4ncc(-c5cc(F)cc(F)c5)nc43)c2)nc1 [Compound B10, 2-{3-[6-(3,5-difluorophenyl)-1,2,3-triazolo[4,5-b]pyrazin-1-ylmethyl]phenyl}-pyrimidin-5-ol]
Met kinase [1]
  IC50: 1 to 100 nM
Met kinase [2]
  IC50: 1 to 100 nM

## CN(C)CCOc1cnc(-c2cccc(Cn3nnc4ncc(-c5cnn(C)c5)nc43)c2)nc1 [Compound B14, dimethyl-[2(2-{3-[6-(1-methyl-1H-pyrazol-4-yl)-1,2,3-triazolo[4,5-b]pyrazin-1-ylmethyl]phenyl}pyrimidin-5-yloxy)ethyl]amine hydrochloride]
Met kinase [1]
  IC50: 1 to 100 nM
Met kinase [2]
  IC50: 1 to 100 nM

## Cn1cc(-c2cnc3nnn(Cc4cccc(-c5ncc(OCCCO)cn5)c4)c3n2)cn1 [Compound B15]
Met kinase [1]
  IC50: 1 to 100 nM
Met kinase [2]
  IC50: 1 to 100 nM

## COCCOc1cnc(-c2cccc(Cn3nnc4ncc(-c5cnn(C)c5)nc43)c2)nc1 [Compound B16]
Met kinase [1]
  IC50: 1 to 100 nM
Met kinase [2]
  IC50: 1 to 100 nM

## CN1CCN(CCOc2cnc(-c3cccc(Cn4nnc5ncc(-c6cnn(C)c6)nc54)c3)nc2)CC1 [Compound B17]
Met kinase [1]
  IC50: 1 to 100 nM
Met kinase [2]
  IC50: 1 to 100 nM

## Cn1cc(-c2cnc3nnn(Cc4cccc(-c5ncc(OCCCN6CCOCC6)cn5)c4)c3n2)cn1 [Compound B18]
Met kinase [1]
  IC50: 1 to 100 nM
Met kinase [2]
  IC50: 1 to 100 nM

## CN1CCN(CCOc2cnc(-c3cccc(Cn4nnc5ncc(-c6cnn(C)c6)nc54)c3)nc2)CC1=O [Compound B19]
Met kinase [1]
  IC50: 1 to 100 nM
Met kinase [2]
  IC50: 1 to 100 nM

## Cn1cc(-c2cnc3nnn(Cc4cccc(-c5ncc(OCC6CNCCO6)cn5)c4)c3n2)cn1 (stereo not shown) [Compound B20]
Met kinase [1]
  IC50: 1 to 100 nM
Met kinase [2]
  IC50: 1 to 100 nM

## N#Cc1cccc(-c2cnc3nnn(Cc4cccc(-c5ncc(-c6cnn(CCN7CCCC7)c6)cn5)c4)c3n2)c1 [Compound B21]
Met kinase [1]
  IC50: 1 to 100 nM
Met kinase [2]
  IC50: 1 to 100 nM

## N#Cc1cccc(-c2cnc3nnn(Cc4cccc(-c5ncc(OCCN6CCNCC6)cn5)c4)c3n2)c1 [Compound B22]
Met kinase [1]
  IC50: 1 to 100 nM
Met kinase [2]
  IC50: 1 to 100 nM

## Fc1cc(F)cc(-c2cnc3nnn(Cc4cccc(-c5ncc(OCCN6CCNCC6)cn5)c4)c3n2)c1 [Compound B23]
Met kinase [1]
  IC50: 1 to 100 nM
Met kinase [2]
  IC50: 1 to 100 nM

## Fc1cc(F)cc(-c2cnc3nnn(Cc4cccc(-c5ncc(OCC6CCNCC6)cn5)c4)c3n2)c1 [Compound B24]
Met kinase [1]
  IC50: 1 to 100 nM
Met kinase [2]
  IC50: 1 to 100 nM

## COCCn1cc(-c2cnc3nnn(Cc4cccc(-c5ncc(OCCN6CCOCC6)cn5)c4)c3n2)cn1 [Compound B33]
Met kinase [1]
  IC50: 1 to 100 nM
Met kinase [2]
  IC50: 1 to 100 nM

## OCCn1cc(-c2cnc3nnn(Cc4cccc(-c5ncc(OCCN6CCOCC6)cn5)c4)c3n2)cn1 [Compound B34]
Met kinase [1]
  IC50: 1 to 100 nM
Met kinase [2]
  IC50: 1 to 100 nM

## Clc1ccc2c(c1)nnn2Cc1cccc(-c2ncc(OCCN3CCOCC3)cn2)c1 [Compound B35, 5-Chloro-1-{3-[5-(2-morpholin-4-ylethoxy)pyrimidin-2-yl]benzyl}-1H-benzotriazole]
Met kinase [1]
  IC50: > 10000 nM
Met kinase [2]
  IC50: 100 to 10000 nM

## O=[N+]([O-])c1ccc(Br)cc1NCc1cccc(-c2ncc(OCCN3CCOCC3)cn2)c1 [Compound B36, (5-bromo-2-nitrophenyl)-{3-[5-(2-morpholin-4-ylethoxy)-pyrimidin-2-yl]benzyl}amine]
Met kinase [1]
  IC50: 100 to 10000 nM
Met kinase [2]
  IC50: 1 to 100 nM

## COc1ccc2nnn(Cc3cccc(-c4ncc(OCCCN(C)C)cn4)c3)c2n1 [Compound B37]
Met kinase [1]
  IC50: 1 to 100 nM
Met kinase [2]
  IC50: 1 to 100 nM
